# Results as given in patent US20090036355A1, “Antisense Modulation of PTP1B Expression” (priority 2004, published 2009).
# Read-outs that look alike come from different tables or passages of the source.
# Key:
# ZDF rats [1] = experiment: ZDF rats: comparison to rosiglitazone and metformin (glucose, HbA1c, meal tolerance, body weight); type: in vivo, rat
# Experimental: A saline treated group of lean rats was also included in the study. Treatment with all drugs was initiated before the rats became frankly diabetic, which occurs at about 8 weeks of age. Plasma glucose levels were measured 3 and 5 weeks after treatment initiation. Body weight was measured once every week; in addition, HbA, levels were measured at the end of the study by HPLC. A meal tolerance test was also performed after 4 weeks of treatment.
# At the end of 5 weeks, some rats were sacrificed and the liver and epididymal fat pads were removed. The rest of the animals (n=4/group) were examined for changes in plasma glucose levels after cessation of treatment. Glucose measurements during the recovery phase were made 10 days and 5 weeks after stopping treatment. Tissue extracts were subjected to Western blot analysis to measure changes in PTP1B protein levels.
# [2] = AST/ALT and plasma cholesterol in aged ZDF rats; conditions: weeks 1, 2, 3, 4 and 5
# ZDF rats [3] = experiment: Fed plasma glucose in Zucker diabetic fatty (ZDF) rats; type: in vivo, rat
# From the text: The leptin receptor deficient Zucker diabetic fatty (ZDF) rat is another useful model for the investigation of type 2 diabetes. Diabetes develops spontaneously in these male rats at ages 8-10 weeks, and is associated with hyperphagia, polyuria, polydipsia, and impaired weight gain, symptoms which parallel the clinical symptoms of diabetes (Phillips M S, et al., 1996, Nat Genet. 13, 18-19).
# (§1) ZDF/GmiCrl-fa/fa (ZDF) male rats were purchased from Charles River Laboratories (Wilmington, Mass., USA). Six week old ZDF male rats were injected intraperitoneally with oligonucleotides at a dose of 25 mg/kg two times per week for four weeks. […] Saline-injected animals also serve as controls.
# ZDF rats [4] = experiment: Intraperitoneal glucose tolerance test (IPGTT) in ZDF rats; type: in vivo, rat
# Experimental: as §1
# An intraperitoneal glucose tolerance test (IPGTT) was also performed. Rats received intraperitoneal injections of glucose, and the blood glucose and insulin levels are measured before the glucose challenge and at intervals over 2 hours. The blood glucose levels (in mg/dL) are shown below in Table 1: […]
# PTP1B protein = PTP1B protein levels in ZDF rats (Western blot); type: in vivo, rat; conditions: compared to saline-treated animals
# Experimental: as §1
# PTP1B protein levels were measured by Western blot analysis.
# PTP1B = PTP1B protein in HEPG2 cells (Western blot); type: cell-based, human; conditions: 150 nM
# Experimental: (§2) There is a high degree of homology between PTP1B and T-cell phosphatase (TC-PTPase, PTPN2), particularly in the catalytic domain. This may present problems in design of small molecule drugs specific for PTP1B. […] HEPG2 human hepatocellular liver carcinoma cells (ATCC, Manassas Va.) are routinely maintained in minimum essential medium (Eagle) with 2 mM L-glutamine and Earle's BSS adjusted to contain 1.5 g/L sodium bicarbonate, 0.1 mM non-essential amino acids, and 1.0 mM sodium pyruvate, […]; fetal bovine serum.
# (§3) Levels of PTP1B and TC-PTPase protein were measured by Western blot using mouse monoclonal antibodies to PTP1B (AB-1) and TC-PTPase (AB-1) (CalBiochem/Oncogene sciences, EMD Biosciences, Inc., San Diego Calif.), which specifically identified human target proteins and were used at 0.25 ug/ml. Results were expressed as percent of control (no oligo treatment).
# [5] = system: T-cell phosphatase (TC-PTPase, PTPN2); experiment: TC-PTPase protein in HEPG2 cells (Western blot); type: cell-based, human; conditions: 150 nM
# Experimental: as §2, §3
# [6] = rat, in vivo
# ZDF rats [7] = experiment: Combination with metformin in ZDF rats: plasma glucose; type: in vivo, rat; conditions: 4 weeks, metformin 100, 300 or 500 mg/kg per day, ISIS 113715 12.5 mg/kg twice a week
# Experimental: 500 mg/kg is the maximally effective dose that can be tolerated by these rats. Plasma glucose was measured at week 0 (before treatment) and after weeks 1, 2 and 4 of treatment.
# [8] = Combination with metformin in ZDF rats: hypoglycemia, AST/ALT, lipids, plasma lactate; type: in vivo, rat; conditions: after 4 weeks of treatment, metformin 100, 300 or 500 mg/kg per day, ISIS 113715 12.5 mg/kg twice a week
# Experimental: 500 mg/kg is the maximally effective dose that can be tolerated by these rats.
# There was no significant change in AST/ALT, plasma triglyceride or plasma cholesterol levels in any animal group. Because of the risk of lactic acidosis associated with metformin treatment, plasma lactate levels were measured.
compound,measurement,setting,value
CN(CCOc1ccc(CC2SC(=O)NC2=O)cc1)c1ccccn1 (stereo not drawn) [Rosiglitazone],Blood glucose (mg/dL) (approx.),"ZDF rats [1]; 10 day washout, saline 310",~260 mg/dL
same,Blood glucose (mg/dL) (approx.),"ZDF rats [1]; 31 day washout, saline 320",~270 mg/dL
same,Blood glucose (mg/dL) (approx.),"ZDF rats [1]; Pre-treatment, ISIS 113715 50 mg/kg/week IP, rosiglitazone 10 mg/kg/day, metformin 800 mg/kg/day orally, saline 140",~140 mg/dL
same,Blood glucose (mg/dL) (approx.),"ZDF rats [1]; Week 3 of dosing, saline 320",~110 mg/dL
same,AST/ALT and plasma cholesterol levels,[2],no significant effects
"ISIS 141923: CCTTCCCTGAAGGTTCCTCC; SEQ ID NO: 20, six-mismatch control of ISIS 113715, negative oligonucleotide control (chemistry not given here)",fed plasma glucose levels,"ZDF rats [3]; 25 mg/kg i.p. two times per week, week 0, saline 302±44",approximately 306±59 mg/dL
same,fed plasma glucose levels,"ZDF rats [3]; week 1, saline 400±17",~391 ± 35 mg/dL
same,fed plasma glucose levels,"ZDF rats [3]; week 2, saline 441±13",~402 ± 37 mg/dL
same,fed plasma glucose levels,"ZDF rats [3]; week 3, saline 453±26",~411 ± 27 mg/dL
same,fed plasma glucose levels,"ZDF rats [3]; week 4, saline 425±10",~392 ± 11 mg/dL
same,"Blood glucose after IPGTT, Glucose mg/dL ± SEM",ZDF rats [4]; 0 min,330 ± 39 mg/dL
same,"Insulin excursion after IPGTT, Insulin (ng/ml ± SEM)",ZDF rats [4]; 0 min,2.2 ± .30 ng/mL
same,"Blood glucose after IPGTT, Glucose mg/dL ± SEM",ZDF rats [4]; 5 min,543 ± 43 mg/dL
same,"Insulin excursion after IPGTT, Insulin (ng/ml ± SEM)",ZDF rats [4]; 5 min,2.3 ± .84 ng/mL
same,"Blood glucose after IPGTT, Glucose mg/dL ± SEM",ZDF rats [4]; 15 min,703 ± 60 mg/dL
same,"Insulin excursion after IPGTT, Insulin (ng/ml ± SEM)",ZDF rats [4]; 15 min,4.0 ± .22 ng/mL
same,"Blood glucose after IPGTT, Glucose mg/dL ± SEM",ZDF rats [4]; 30 min,791 ± 52 mg/dL
same,"Insulin excursion after IPGTT, Insulin (ng/ml ± SEM)",ZDF rats [4]; 30 min,4.2 ± .37 ng/mL
same,"Blood glucose after IPGTT, Glucose mg/dL ± SEM",ZDF rats [4]; 60 min,705 ± 51 mg/dL
same,"Insulin excursion after IPGTT, Insulin (ng/ml ± SEM)",ZDF rats [4]; 60 min,2.4 ± .66 ng/mL
same,"Blood glucose after IPGTT, Glucose mg/dL ± SEM",ZDF rats [4]; 120 min,594 ± 28 mg/dL
same,"Insulin excursion after IPGTT, Insulin (ng/ml ± SEM)",ZDF rats [4]; 120 min,1.7 ± .60 ng/mL
same,Insulin AUC after IPGTT,ZDF rats [4]; saline approximately 300,~320
same,Glucose excursion (AUC) after IPGTT,"ZDF rats [4]; saline approximately 72,000","approximately 80,000"
same,PTP1B protein levels decreased by,PTP1B protein,10%
same,PTP1B protein levels reduced by,PTP1B,reduced neither
same,TC-PTPase levels reduced by,[5],reduced neither
same,AST/ALT and plasma cholesterol levels,[6],no significant effects
CN(C)C(=N)N=C(N)N [Metformin],Blood glucose (mg/dL) (approx.),"ZDF rats [1]; 31 day washout, saline 320",~330 mg/dL
same,Blood glucose (mg/dL) (approx.),"ZDF rats [1]; Week 3 of dosing, saline 320",~180 mg/dL
same,body weight,ZDF rats [1]; after treatment,remained unchanged
same,effect on blood glucose over time,ZDF rats [7],lost over time
same,plasma lactate levels,[8],dose-dependent increase
